Source: paper PMC5056396, “Hexokinase I N-terminal based peptide prevents the VDAC1-SOD1 G93A interaction and re-establishes ALS cell viability” (Scientific Reports, 2016)

Tests used:
recombinant human VDAC1 [1] = test: Microscale Thermophoresis (MST) analysis of VDAC1-SOD1 interaction; assay type: binding; conditions: 100 nM labeled VDAC1, SOD1 1.22 nM to 20 μM
Experimental: (§1) Intact isolated mitochondria from the motor neuron-like NSC34 cells were incubated with SOD1 WT or G93A, and mitochondrial membranes were precipitated by centrifugation. […] The affinity of SOD1 proteins for VDAC1 was then studied by using an in vitro binding assay. Purified and refolded VDAC1 was immobilized on Ni-NTA magnetic beads and incubated with SOD1 proteins. Then, VDAC1-binding complexes were isolated by the application of a magnetic field. […] The VDAC1-SOD1 interaction was quantitatively assayed by Microscale Thermophoresis (MST) analysis. MST measures any variation in the thermal migration of a fluorescently labeled binding partner; changes of fluorescence in a heated spot of the protein solution is a function of increasing interacting protein concentration, and can be exploited to calculate the binding affinity coefficient (Kd). The fluorescent-labeled VDAC1 was incubated with increasing concentrations of SOD1 proteins and the changes in fluorescence monitored. […] Depletion curve was used to calculate the Kd, which was estimated 4,81 μM.
Microscale Thermophoresis (MST) analysis was performed using the NanoTemper Monolith NT.115 apparatus (NanoTemper Technologies, Munich, Germany) as described. VDAC1 was fluorescently-labeled using the NanoTemper protein-labeling kit Green/Blue. […]

[2] = tested on: intact mitochondria purified from NSC34 cells; test: Mitochondrial binding assay of SOD1 proteins (western blot); parameters: species or system mouse; conditions: 2 μg SOD1, 1 h RT, n = 3
Experimental: Intact isolated mitochondria from the motor neuron-like NSC34 cells were incubated with SOD1 WT or G93A, and mitochondrial membranes were precipitated by centrifugation. […] The affinity of SOD1 proteins for VDAC1 was then studied by using an in vitro binding assay. Purified and refolded VDAC1 was immobilized on Ni-NTA magnetic beads and incubated with SOD1 proteins. Then, VDAC1-binding complexes were isolated by the application of a magnetic field. […] The VDAC1-SOD1 interaction was quantitatively assayed by Microscale Thermophoresis (MST) analysis. MST measures any variation in the thermal migration of a fluorescently labeled binding partner; changes of fluorescence in a heated spot of the protein solution is a function of increasing interacting protein concentration, and can be exploited to calculate the binding affinity coefficient (Kd). The fluorescent-labeled VDAC1 was incubated with increasing concentrations of SOD1 proteins and the changes in fluorescence monitored. […]
Intact mitochondria were purified from NSC34 cells by Mitochondrial isolation kit (Miltenyi Biotech), according with manufacturer’s instructions. Isolated, intact mitochondria, in the storage buffer provided, were quantified by Lowry method. […] Proteins in mitochondrial or supernatant fraction were detected by western blot and quantified as explained in Supplementary Information. […]

[3] = tested on: human VDAC1 reconstituted into PLB; test: VDAC1 channel conductance in planar lipid bilayer (PLB); assay type: biochemical; conditions: for effect on single channel VDAC1 conductance: 1 M KCl, +25 mV, 0.2 μM SOD1 proteins or 15 μM peptide; for effect on voltage-dependence of VDAC1, triangular voltage ramps: symmetric 1 M KCl, ramps 0 to ±50 mV
Source text: Purified VDAC1 was reconstituted into a planar phospholipid bilayer (PLB) and its channel conductance was monitored before and after addition of SOD1 proteins, on cis or trans side of the membrane. […] Moreover, the effect of SOD1 proteins on the voltage-dependence of VDAC1 was monitored by triangular voltage ramps from 0 to ±50 mV. […] The current linearly follows the voltage applied up to about ±25 mV, where VDAC1 decreases its channel conductance through step-like transitions, remaining in low-conducting states.
Under standard experimental condition (1 M KCl and an applied potential of +25 mV) the VDAC1 channel was mainly in low-conducting closed states. […] The effect of NHK1 on the channel conductance is even more evident by plotting the amplitude values obtained in the current traces as a function of the number of events. While for VDAC1 alone the amplitude values appear as a main peak corresponding to the closed states (Fig. 4B), the presence of NHK1 caused a different distribution of events: an additional, different peak corresponding to the open state was visible, together with the closed states peak (Fig. 4C). […] The effect of NHK1 on the voltage-dependence of VDAC1 was monitored by triangular voltage ramps. […] In this experiment, indeed, VDAC1 completely loose, very precociously (already at ±15 mV applied), its ability to linearly respond to the applied voltage: a continuous switch from open to closed states was observed, especially at positive potentials. […] Upon NHK1 incubation, VDAC1 current transitions at positive voltages are very noisy and pass through different sub-conductance states (Fig. 4F).
Purified VDAC1 was reconstituted into a Planar Lipid Bilayer (PLB) apparatus (Warner Instruments, Hamden, CT, USA), previously described. Bilayers were prepared using asolectin (Sigma) dissolved in decane (Sigma) containing 1% chloroform (Sigma) across a 200 μm hole in a derlin cuvette (Warner Instruments). Experiments were performed in 1 M KCl, 10 mM Hepes, pH 7.0[40][46]. Control experiments using empty membrane and/or detergents were performed to avoid activity in any of the above solutions. Data were acquired using a Bilayer Clamp amplifier (Warner Instruments) at 100 μs/point, filtered at 200 Hz and analyzed offline using Clampfit 10.4 program set (Axon Instruments, Union City, CA, USA). Single channel analysis of VDAC1 was performed in presence or not of 0.2 μM of SOD1 WT or G93A, 15 μM NHK1 or ScNHK1 peptide.

recombinant human VDAC1 [4] = test: In vitro binding assay of SOD1 proteins to VDAC1 immobilized on Ni-NTA magnetic beads (western blot); conditions: 6.25 μM SOD1, 1 h RT, n = 3
Experimental: as §1
Recombinant VDAC1 was immobilized onto Ni-NTA Magnetic Agarose Beads (Qiagen) by exploiting its 6xHis-tag, according with manufacture’s protocol. […] Any protein in VDAC1-bound and -unbound fractions was evaluated by western blot. […]

NSC34-SOD1G93A cells = test: Mitochondrial membrane potential (ΔΨm) by flow cytometry; assay type: cell-based, mouse; conditions: NSC34-SOD1G93A expressing HK1; RH123; n = 3
Experimental: To evaluate the NHK1 influence on mitochondrial functionality, mitochondrial membrane potential variation (ΔΨm) was assayed in the presence of NHK1 peptide or HK1. ΔΨm is related to the ATP production by oxidative phosphorylation; therefore, it is considered an indication of good mitochondrial and cellular health. Using mitochondria-targeted fluorescent probes, we estimated in flow cytometry the rate of mitochondrial depolarization. NSC34-SOD1G93A cells shown a high level of depolarized mitochondria compared to NSC34-SOD1WT. […] Similarly to NHK1 peptide, the expression of the whole HK1 reduced the depolarized mitochondria of about 15% (Fig. 7C).
ΔΨm was measured using tetramethyl-rhodamine methyl ester (TMRM) or Rhodamine 123 (RH123) (Molecular Probes) according to the excitation/emission wavelength of the transfection reporter or of the transfected fluorescent protein used. Both probes accumulates in active mitochondria due to their positive charge, whereby the reduction of ΔΨm leads to the release of fluorescent probes. Transfected NSC34-SOD1WT and NSC34-SOD1G93A cells were washed with PBS and incubated for 30 min at 37 °C with Krebs Ringer Buffered Saline supplemented with either 200 nM TMRM or 0.1 μg/mL RH123 and 20 μM Verapamil (as a multi drug-resistant pump inhibitor) (Sigma). Cells were then harvested and immediately analyzed by flow cytometry. Cells were excited by an air-cooled argon 488 nm laser, reading the GFP fluorescence of HK1-GFP or RH123 fluorescence in FL1 log mode; TMRM and mtDsRED used as transfection reporter of NHK1 peptide were read on FL3 log mode. Only viable cells detected by reading the scattering indicated as FSC and SSC, were considered for our analysis. The threshold physiological value of ΔΨm was estimated by using cells exposed to 1 μM of the uncoupling agent FCCP as a negative control. Data reported are representative for three sets of independent experiments, each performed at least in triplicate and based on 20.000 events for each group. Data were statistical analyzed by chi-square test. A p < 0,001 was taken as significant.

[5] = tested on: VDAC1-SOD1 G93A interaction; test: In vitro VDAC1-SOD1 G93A binding assay after pre-incubation with HK1 or peptide (western blot, densitometry); parameters: species or system human; conditions: 200 μM HK1 pre-incubated 1 h, 6.25 μM SOD1 G93A; with respect to control; n = 3
Source text: It is well known that HKs bind to VDAC1 in physiological conditions. We hypothesized that the available area for interaction with soluble proteins is a limited, exposed portion of the transmembrane pore VDAC1. […] For this reason, we repeated the VDAC1-SOD1 G93A binding assay, adding increasing concentrations of HK1. […] The reduction corresponds to the increase of HK1 in VDAC1-bound fraction, and it is proportional to the HK1 concentrations added in the assay (Fig. 3A).
In order to evaluate the NHK1 ability to interfere with VDAC1-SOD1 G93A interaction, a binding assay was performed. Increasing concentrations of NHK1 were added to immobilized-VDAC1, before SOD1 G93A addition. […] In fact, a 20-fold smaller concentration of peptide was used to obtain a result similar to that obtained by using the whole HK1 in the previous experiment (see Fig. 3A).
Recombinant VDAC1 was immobilized onto Ni-NTA Magnetic Agarose Beads (Qiagen) by exploiting its 6xHis-tag, according with manufacture’s protocol. For each experiment, a large excess of VDAC1 (30 μM) were incubated with 50 μL of beads suspension in Interaction Buffer (IB) (300 mM NaCl, 50 mM NaH2PO4, 20 mM imidazole, pH 8.0) to saturate all sites. Beads were collected using the magnet-based system DynaMag-2 (Life Technologies) and washed twice in Wash Buffer (300 mM NaCl, 50 mM NaH2PO4, 20 mM imidazole, 0.05% Tween-20, pH 6.3) to remove any excess of VDAC1. Beads-immobilized VDAC1 were incubated with 6.25 μM SOD1 WT or G93A, for 1 h at RT, under constant shaking, in 100 μL of IB. The assay was also performed by pre-incubating immobilized-VDAC1 for an extra 1 h with increasing concentration of purified human HK1 (0, 100, 200 μM) or NHK1 peptide (0, 5, 10, 25 μM), before SOD1 G93A addition. Beads were recovered using Dyna-Mag2 system and VDAC1-complexes were eluted from beads using 50 μL of Elution Buffer (300 mM NaCl, 50 mM NaH2PO4, 300 mM imidazole, pH 3.5). Any protein in VDAC1-bound and -unbound fractions was evaluated by western blot. Three independent experiments were performed for each condition tested.

In the case of “SOD1 WT: Strep-tagged recombinant human SOD1 wild type expressed in E. coli”, the “change of fluorescence of labeled VDAC1 with increasing SOD1 concentration” value (recombinant human VDAC1 [1]) is reported as “no fluorescence change”, the “distribution between mitochondrial pellet and supernatant” value [2] is reported as “found exclusively in the supernatant” and the “effect on single channel VDAC1 conductance” value [3] is reported as “did not modify the VDAC1 closed state”. For the same molecule, the “effect on voltage-dependence of VDAC1, triangular voltage ramps” value [3] was “no modification in the usual VDAC1 pattern” and the “distribution between VDAC1-bound and -unbound fraction” value (recombinant human VDAC1 [4]) was “almost exclusively in the unbound fraction”.

“SOD1 G93A: Strep-tagged recombinant human ALS-linked SOD1 G93A mutant expressed in E. coli” was tested, and the “change of fluorescence of labeled VDAC1 with increasing SOD1 concentration” value (recombinant human VDAC1 [1]) was “produced fluorescence decrease”, the “distribution between mitochondrial pellet and supernatant” value [2] was “co-precipitated in the mitochondrial pellet” and the “effect on single channel VDAC1 conductance” value [3] was “promoted VDAC1 channel instability”. For the same molecule, the “effect on voltage-dependence of VDAC1, triangular voltage ramps” value [3] was “perturbation of voltage-dependence” and the “distribution between VDAC1-bound and -unbound fraction” value (recombinant human VDAC1 [4]) was “distributed between VDAC1-bound and -unbound fraction”.

B1: HK1: recombinant human HK1 purchased by Sigma; in cells expressed from plasmid (protein)
chain: MIAAQLLAYYFTELKDDQVKKIDKYLYAMRLSDETLIDIMTRFRKEMKNGLSRDFNPTATVKMLPTFVRSIPDGSEKGDFIALDLGGSSFRILRVQVNHEKNQNVHMESEVYDTPENIVHGSGSQLFDHVAECLGDFMEKRKIKDKKLPVGFTFSFPCQQSKIDEAILITWTKRFKASGVEGADVVKLLNKAIKKRGDYDANIVAVVNDTVGTMMTCGYDDQHCEVGLIIGTGTNACYMEELRHIDLVEGDEGRMCINTEWGAFGDDGSLEDIRTEFDREIDRGSLNPGKQLFEKMVSGMYLGELVRLILVKMAKEGLLFEGRITPELLTRGKFNTSDVSAIEKNKEGLHNAKEILTRLGVEPSDDDCVSVQHVCTIVSFRSANLVAATLGAILNRLRDNKGTPRLRTTVGVDGSLYKTHPQYSRRFHKTLRRLVPDSDVRFLLSESGSGKGAAMVTAVAYRLAEQHRQIEETLAHFHLTKDMLLEVKKRMRAEMELGLRKQTHNNAVVKMLPSFVRRTPDGTENGDFLALDLGGTNFRVLLVKIRSGKKRTVEMHNKIYAIPIEIMQGTGEELFDHIVSCISDFLDYMGIKGPRMPLGFTFSFPCQQTSLDAGILITWTKGFKATDCVGHDVVTLLRDAIKRREEFDLDVVAVVNDTVGTMMTCAYEEPTCEVGLIVGTGSNACYMEEMKNVEMVEGDQGQMCINMEWGAFGDNGCLDDIRTHYDRLVDEYSLNAGKQRYEKMISGMYLGEIVRNILIDFTKKGFLFRGQISETLKTRGIFETKFLSQIESDRLALLQVRAILQQLGLNSTCDDSILVKTVCGVVSRRAAQLCGAGMAAVVDKIRENRGLDRLNVTVGVDGTLYKLHPHFSRIMHQTVKELSPKCNVSFLLSEDGSGKGAALITAVGVRLRTEASS
With B1 the “reduction of depolarized mitochondria” value (NSC34-SOD1G93A cells) was “about 15%” and the “decrease of SOD1 G93A bound to immobilized VDAC1” value [5] was “about 40%”.
